The text below walks through data of PubChem BioAssay (NCI).

Where “and” joins values, the source holds several entries; their conditions need not be identical. Identical values can stand only once.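 Compound exposure: 48 hours, 5 concentrations, 96-well plates. Abbreviation: GI50, concentration required for 50% inhibition of growth. TGI is the concentration that stops growth completely.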

Common to all, as to test: growth of human tumour cells (NCI), 48 h
Experiment [1] concerns A498 renal.
Experiment [2] relates to HCT-116 colon.
Experiment [3] has as its system HCT-15 colon.
In experiment [4] the test system is NCI-H226 lung.
For experiment [5], the system named is NCI-H460 lung.
In experiment [6] the test system is OVCAR-8 ovarian.
The subject of experiment [7] is SK-MEL-5 melanoma.
In experiment [8] the test system is SNB-75 CNS.
Experiment [9] concerns UO-31 renal.

Regarding `C[C@@]12CCCc3coc(c31)C(=O)c1cc3c(cc12)C(=O)C=CC3=O`, the TGI in experiment [1] was above 100 µM; in experiment [2], above 1 µM; in [3], > 1 µM and 36.7 µM; in experiment [4] it was above 1 µM; in experiment [5], > 1 µM and 41.3 µM; in experiment [6] it was > 1 µM and 29.1 µM. Moreover, the TGI in experiment [7] is > 1 µM and 30.9 µM; in experiment [8] it was > 1 µM and 38.2 µM; in [9] it was > 1 µM and 29.7 µM. Also, the GI50 in [3], in experiment [5], in experiment [6], in experiment [7], in experiment [8] and in [9] was above 1 µM each time.
As for `CC1(C)O/C(=C\c2ccccc2)C(=O)/C(=C/c2ccccc2)O1`, the TGI is above 100 µM in experiment [1]; above 100 µM in experiment [2]; 96.3 µM in [4]; above 100 µM in [5]; above 100 µM in experiment [6]; 27.9 µM in experiment [7]. Also, the TGI in experiment [8] and in experiment [9] was above 100 µM throughout.
`O=S1OC2(c3ccccc3-c3ccccc32)c2ccccc21` (stereo unspecified): the TGI in experiment [1], in experiment [2], in experiment [3], in [4], in [5] and in experiment [6] was above 100 µM in each case. Moreover, the TGI in [7], in experiment [8] and in experiment [9] was above 100 µM each time.
For `Cc1cc(C)c(C2[C@H]3C(=O)N(c4ccc(Cc5ccc(N6C(=O)[C@@H]7ON(c8ccccc8)C(c8c(C)cc(C)cc8C)[C@@H]7C6=O)cc5)cc4)C(=O)[C@H]3ON2c2ccccc2)c(C)c1` (stereo partly specified), the TGI in [1], in experiment [2], in experiment [3], in [4], in experiment [5] and in [6] was above 100 µM throughout. The TGI in [7], in experiment [8] and in experiment [9] was above 100 µM in each case.
As to `COC(=O)CCC(=O)CC1CC(=O)C2CCCN12` (stereo unspecified), the TGI in experiment [1], in [2], in [4], in [5], in [6] and in experiment [7] was above 100 µM each time. The TGI in experiment [8] and in experiment [9] was above 100 µM each time.
In the case of `CC12CCCCC1(C)C2Sc1ccccc1` (stereo unspecified), the TGI in experiment [1] is 98.2 µM; in experiment [2] it was above 100 µM; in experiment [3] it was above 100 µM; in experiment [4], above 100 µM; in [5], above 100 µM; in [6], above 100 µM. The TGI in experiment [7] was above 63.5 µM; in [8] it was above 100 µM; in experiment [9] it was above 100 µM.
In the case of `CC1=NN(C(=O)CC(=O)N(C(=O)c2ccccc2Cl)c2ccc(C)cc2)C(=O)C1N=Nc1ccc([N+](=O)[O-])cc1` (stereo unspecified), the TGI is above 100 µM in [1]; 38.6 µM in experiment [2]; above 63.5 µM in experiment [3]; above 100 µM in experiment [4]; above 76.5 µM in experiment [5]; 78.1 µM in [6]. Further, the TGI in [7] is above 100 µM; in experiment [8], above 72 µM; in experiment [9] it was above 93.6 µM.
In the case of `Nc1nc(CCl)nc(Nc2ccccc2)n1`, the TGI in experiment [2] is 43.5 µM; in experiment [4], 43.3 µM; in [5], 39.3 µM; in experiment [6], above 100 µM; in experiment [7], 36.5 µM; in experiment [8] it was 50.3 µM. Moreover, the TGI in experiment [9] was found to be 67.3 µM.
As for `C[n+]1cc(C(O)c2ccc3c(c2)OCO3)c2ccccc2c1` (stereo unspecified), the TGI in [1], in experiment [2], in experiment [3], in [4], in [5] and in experiment [6] was above 100 µM throughout. In addition, the TGI was 44.2 µM in experiment [7], above 100 µM in experiment [8] and 92.5 µM in [9].
`CC(C)N=c1cc2n(-c3ccc(Cl)cc3)c3ccccc3nc-2cc1Nc1ccc(Cl)cc1`: the GI50 was 0.54 µM and 1.61 µM in experiment [3]; 1.43 µM in experiment [4]; 0.778 µM in experiment [5]; 2.79 µM in [6]; 0.634 µM and 1.28 µM in [7]; 1.23 µM in experiment [8]. In addition, the TGI in [3] was above 100 µM; in [4], above 50 µM; in experiment [5], above 50 µM; in experiment [6] it was above 100 µM; in [7], 1.26 µM and 2.59 µM; in experiment [8], 15.9 µM.
On to `CN(C)C(=S)/N=c1\ss/c(=N\C(=S)N(C)C)n1-c1ccc(Cl)c(Cl)c1`, for which the TGI in experiment [1], in [2], in experiment [3], in experiment [4], in experiment [5] and in experiment [6] was above 100 µM in each case. The TGI is above 100 µM in experiment [7], 61.2 µM in [8] and above 100 µM in [9].
Take `CCCCOC(=O)NC(=O)c1cn(CCCOC(=O)NCCCCCCNC(=O)OCCCn2cc(C(=O)NC(=O)OCCCC)c(=O)[nH]c2=O)c(=O)[nH]c1=O`: the TGI in experiment [1], in [2], in [3], in experiment [5], in experiment [6] and in [7] was above 100 µM each time. For the same molecule, the TGI in experiment [8] and in experiment [9] was above 100 µM in each case.
Take `COc1cc(C)c2c(c1C)OC(=O)c1c(C)c(Cl)c(O)c(C=O)c1O2`: the TGI was 33.2 µM in experiment [1]; 54.9 µM in experiment [2]; 87.6 µM in experiment [4]; 40.3 µM in experiment [5]; 27.4 µM in experiment [6]; above 100 µM in [7]. In addition, the TGI in [8] is 46.8 µM; in [9], 76 µM.
For the molecule `COC(=O)/C(C=O)=C/Sc1ccccc1`, the TGI in experiment [2] was above 100 µM; in experiment [3], above 100 µM; in experiment [4] it was 44.6 µM; in experiment [5] it was above 100 µM; in experiment [6], 31.8 µM; in [7], 85.2 µM. The TGI in [8] was 50.9 µM; in [9], 30.7 µM.
For `COc1cc2ccc3c4cc(OC)c(OC(C)C)cc4cnc3c2cc1OC`, the TGI in experiment [2], in experiment [3], in experiment [4], in experiment [5], in [6] and in experiment [7] was above 100 µM in each case. The TGI in experiment [8] and in [9] was above 100 µM each time.
